# According to patent publication US10519125B2, “Flavagline derivatives” (PIERRE FABRE MEDICAMENT, priority 2014, dated 2019):
# Like-named read-outs stand apart in the source and are kept apart here.
# What was measured:
# [1] = tested on: MDA-MB-231 human tumor xenograft; assay: Antitumor activity, subcutaneous MDA-MB-231 breast cancer xenografts in SCID mice; type: in vivo; conditions: for Activity: q1d5 × 3, MDA-MB-231; for Deaths (%): q1d5 × 3, SCID mice
# Description: Subcutaneous xenografts were established with MDA-MD-231 breast cancer cells (ATCC: HTB-26) in SCID mice (Harlan, U.K.). The animals were treated and cared after in accordance with the Guide For the Care and Use of Laboratory Animals (National Research Council, 1996) and with European Directive 86/609/EEC, under the supervision of a staff expert authorized to conduct experimental studies with laboratory animals.
# All the experiments were conducted pursuant to French and local regulations (Department of Veterinary Services, Haute-Garonne, Toulouse) according to the directives of an ethics committee, based on the UKCCCR Guidelines for the Welfare of Animals in Experimental Neoplasia, as indicated above. The implantation of MDA-MB-231 human tumor fragments is carried subcutaneously in the flanks of SCID mice using a trocar and, for the study of tumor growth, the tumors are allowed to reach a median volume of 70-130 mm^3 before starting the studies.
# After randomization in the treatment cages, the inhibitors were administered intravenously according to a g1d5×3 treatment scheme (5 injections per week for 3 weeks). The mice were monitored and weighed daily. The tumors were measured with a slide caliper and the tumor volumes (mm^3) were estimated using the following formula: volume=0.5 (length×width^2). Each experimental group consists of 5 individuals. The efficacy of the treatment was evaluated by analysis of the measurement of the median volume of the treated tumors compared with the median volume of the tumors receiving only carrier (control). The T/C evaluation criterion corresponds to: [(median volume of the treated group, T/median volume of the control group, C)×100]. This T/C ratio is expressed as a percentage. The optimal T/C value corresponds to the ratio which reflects the maximum inhibition of growth obtained during the study. The maximum gains or losses of weight, expressed as a percentage of the initial weight of the animals, as well as the percentage of drug-related deaths (i.e., the percentage of treated animals that died before the assessment) were used to provide an evaluation of the toxicity of the compounds. In accordance with the NCI (National Cancer Institute) criterion, a dose is deemed toxic if it induces weight loss greater than −20% relative to the initial weight of the mouse or if it induces more than 20% deaths (Corbett et al. J Exp Ther Oncol 1996, 1:95-108).
# [2] = tested on: HCT116 line (human colon cancer cell line); assay: Antiproliferative (cytotoxic) activity on HCT116 line, ATPLite cell viability, 72 hours; type: cell-based; conditions: read-out: HCT116 (EC50)
# Description: 2.1. Antiproliferative Activity of the Compounds According to the Invention (IC50 in M)
# Culture of Lines and Measurement of Cell Viability:
# The HCT116 line (ATCC, CCL-247) derived from colon cancer was cultured in MEM (Minimum Essential Medium Eagle) supplemented with 2 mM L-glutamine (Sigma, G7513), 5% fetal calf serum (Sigma, F7524) and antibiotics (Sigma, A59-55). The protocol for determining cytotoxic activity consists in seeding cells on 96-well plates (Perkin Elmer, 6005668) at a density of 1500 cells per well. After 24 hours of incubation, the test compound is applied in each well, using serial dilutions in the solvent dimethylsulfoxide (DMSO) (Sigma, D8418), from 10 mM stock solutions in 100% DMSO. Each dilution was added to the cells 24 hours after seeding. Under these conditions, the final solvent concentration is 0.1% DMSO. A reading of cell proliferation was carried out 72 hours after addition of the products with the ATPLite™ kit (Perkin Elmer, 6016947) and according to the manufacturer's recommendations. The analysis of the proliferation results was carried out by comparison with conditions where only the carrier solvent (culture medium, 0.1% DMSO) was added to the cells. The dose-response curves obtained were analyzed using the PRISM 4.03 software (GraphPad Software Inc.), or by an equivalent analytical method, to determine the concentration of each compound which inhibits 50% of cell proliferation (EC50).
# By way of example, the cytotoxic properties of several compounds of the invention evaluated on the HCT116 line (human colon cancer cell line) are reported in Table 1.
# [3] = Mus musculus, MDA-MB-231, iv, read-out: Opt. T/C (%)
# [4] = HCT-116, HCT116, 72 hours after addition, ATPLite
smiles,measurement,setting,value
"COc1ccc([C@@]23Oc4cc(OCCN(C)C)cc(OC)c4[C@]2(O)[C@H](O)[C@H](c2nnc(N)o2)[C@H]3c2ccccc2)cc1 (racemic) [Compound 21, rac-(1R,2R,3S,3aR,8bS)-2-(5-amino-1,3,4-oxadiazol-2-yl)-6-(2-(dimethylamino)ethoxy)-8-methoxy-3a-(4-methoxyphenyl)-3-phenyl-2,3,3a,8b-tetrahydro-1H-cyclopenta[b]benzofuran-1,8b-diol]",Activity,[1]; 1 mg/kg intravenously,Active
same,Deaths (%),[1]; 1 mg/kg intravenously,0%
same,response vs control in vivo at 1 mg/kg,[1]; [3],22%
"CN[C@H]1[C@@H](O)[C@@]2(O)c3c(OC)cc(OC)cc3O[C@@]2(c2ccc(OC)cc2)[C@@H]1c1ccccc1 (racemic) [Compound 15, rac-(1R,2R,3R,3aR,8bS)-6,8-dimethoxy-3a-(4-methoxyphenyl)-2-(methylamino)-3-phenyl-1,2,3,3a-tetrahydro-8bH-cyclopenta[b]benzofuran-1,8b-diol]",EC50,[2]; [4],3.83 nM
"COc1ccc([C@@]23Oc4cc(OC)cc(OC)c4[C@]2(O)[C@H](O)[C@H](c2nnc(N)o2)[C@H]3c2ccccc2)cc1 [Compound 19, (1R,2R,3S,3aR,8bS)-2-(5-amino-1,3,4-oxadiazol-2-yl)-6,8-dimethoxy-3a-(4-methoxyphenyl)-3-phenyl-2,3,3a,8b-tetrahydro-1H-cyclopenta[b]benzofuran-1,8b-diol]",Activity,[1]; 1.3 mg/kg intravenously,Active
same,Deaths (%),[1]; 1.3 mg/kg intravenously,0%
same,response vs control in vivo at 1.3 mg/kg,[1]; [3],26%
"COc1ccc([C@@]23Oc4cc(OCCCC(O)CO)cc(OC)c4[C@]2(O)[C@@H]2OC(=O)N[C@@H]2[C@H]3c2ccccc2)cc1 (mixture of isomers) [Compound 41, rac-(3aR,4R,4aR,9bS,9cR)-7-((4,5-dihydroxypentyl)oxy)-9b-hydroxy-9-methoxy-4a-(4-methoxyphenyl)-4-phenyl-3,3a,4,4a,9b,9c-hexahydro-2H-benzofuro[3′,2′:3,4]cyclopenta[1,2-d]oxazol-2-one]",EC50,[2]; [4],4.2 nM
"COc1ccc([C@@]23Oc4cc(OCCCCO)cc(OC)c4[C@]2(O)[C@@H]2OC(=O)N[C@@H]2[C@H]3c2ccccc2)cc1 (racemic) [Compound 42, rac-(3aR,4R,4aR,9bS,9cR)-9b-hydroxy-7-(4-hydroxybutoxy)-9-methoxy-4a-(4-methoxyphenyl)-4-phenyl-3,3a,4,4a,9b,9c-hexahydro-2H-benzofuro[3′,2′:3,4]cyclopenta[1,2-d]oxazol-2-one]",EC50,[2]; [4],2.16 nM
"COC(=O)[C@H]1[C@@H](O)[C@@]2(O)c3c(OC)cc(OCCCCN)cc3O[C@@]2(c2ccc(OC)cc2)[C@@H]1c1ccccc1 [Compound 50, methyl (1R,2R,3S,3aR,8bS)-6-(4-aminobutoxy)-1,8b-dihydroxy-8-methoxy-3a-(4-methoxyphenyl)-3-phenyl-2,3,3a,8b-tetrahydro-1H-cyclopenta[b]benzofuran-2-carboxylate]",EC50,"[2]; HCT-116, 72 h",1.22 nM
"COC(=O)[C@H]1[C@@H](O)[C@@]2(O)c3c(OC)cc(OCCCCN(C)C)cc3O[C@@]2(c2ccc(OC)cc2)[C@@H]1c1ccccc1 (racemic) [Compound 52, rac-methyl (1R,2R,3S,3aR,8bS)-6-(4-(dimethylamino)butoxy)-1,8b-dihydroxy-8-methoxy-3a-(4-methoxyphenyl)-3-phenyl-2,3,3a,8b-tetrahydro-1H-cyclopenta[b]benzofuran-2-carboxylate]",EC50,[2]; [4],4.9 nM
"COc1ccc([C@@]23Oc4cc(OC)cc(OC)c4[C@]2(O)[C@H](O)[C@H](c2nnc(C)[nH]2)[C@H]3c2ccccc2)cc1 (racemic) [Compound 30, rac-(1R,2S,3S,3aR,8bS)-6,8-dimethoxy-3a-(4-methoxyphenyl)-2-(5-methyl-4H-1,2,4-triazol-3-yl)-3-phenyl-2,3,3a,8b-tetrahydro-1H-cyclopenta[b]benzofuran-1,8b-diol]",Activity,[1]; 0.7 mg/kg intravenously,Active
same,Deaths (%),[1]; 0.7 mg/kg intravenously,0%
same,response vs control in vivo at 0.7 mg/kg,[1]; [3],15%
"COc1ccc([C@@]23Oc4cc(OC)cc(OC)c4[C@]2(O)[C@H](O)[C@H](c2nnc(N)o2)[C@H]3c2ccccc2)cc1 (racemic) [Compound 18, rac-(1R,2R,3S,3aR,8bS)-2-(5-amino-1,3,4-oxadiazol-2-yl)-6,8-dimethoxy-3a-(4-methoxyphenyl)-3-phenyl-2,3,3a,8b-tetrahydro-1H-cyclopenta[b]benzofuran-1,8b-diol]",Activity,[1]; 2.5 mg/kg intravenously,Active
same,Deaths (%),[1]; 2.5 mg/kg intravenously,0%
same,Activity,[1]; 3.5 mg/kg intravenously,Active
same,Deaths (%),[1]; 3.5 mg/kg intravenously,0%
same,response vs control in vivo at 2.5 mg/kg,[1]; [3],40%
same,response vs control in vivo at 3.5 mg/kg,[1]; [3],6%
"COc1ccc([C@@]23Oc4cc(OC)cc(OC)c4[C@]2(O)[C@@H]2OC(=O)N[C@@H]2[C@H]3c2ccccc2)cc1 (racemic) [Compound 40, rac-(3aR,4R,4aR,9bS,9cR)-9b-hydroxy-7,9-dimethoxy-4a-(4-methoxyphenyl)-4-phenyl-3,3a,4,4a,9b,9c-hexahydro-2H-benzofuro[3′,2′:3,4]cyclopenta[1,2-d]oxazol-2-one]",EC50,[2]; [4],2.52 nM
"COc1ccc([C@@]23Oc4cc(OCCN5CCN(C)CC5)cc(OC)c4[C@]2(O)[C@H](O)[C@H](c2nnc(N)o2)[C@H]3c2ccccc2)cc1 (racemic) [Compound 22, rac-(1R,2R,3S,3aR,8bS)-2-(5-amino-1,3,4-oxadiazol-2-yl)-8-methoxy-3a-(4-methoxyphenyl)-6-(2-(4-methylpiperazin-1-yl)ethoxy)-3-phenyl-2,3,3a,8b-tetrahydro-1H-cyclopenta[b]benzofuran-1,8b-diol]",Activity,[1]; 1.4 mg/kg intravenously,Active
same,Deaths (%),[1]; 1.4 mg/kg intravenously,0%
same,response vs control in vivo at 1.4 mg/kg,[1]; [3],21%
"COC(=O)[C@H]1[C@@H](O)[C@@]2(O)c3c(OC)cc(OCCCCN)cc3O[C@@]2(c2ccc(OC)cc2)[C@@H]1c1ccccc1 (racemic) [Compound 8, rac-(1R,2R,3S,3aR,8bS)-methyl 6-(4-aminobutoxy)-1,8b-dihydroxy-8-methoxy-3a-(4-methoxyphenyl)-3-phenyl-2,3,3a,8b-tetrahydro-1H-cyclopenta[b]benzofuran-2-carboxylate]",EC50,"[2]; HCT-116, 72 h",2.61 nM
"CNc1nnc([C@H]2[C@@H](O)[C@@]3(O)c4c(OC)cc(OC)cc4O[C@@]3(c3ccc(OC)cc3)[C@@H]2c2ccccc2)o1 (racemic) [Compound 24, rac-(1R,2R,3S,3aR,8bS)-6,8-dimethoxy-3a-(4-methoxyphenyl)-2-(5-(methylamino)-1,3,4-oxadiazol-2-yl)-3-phenyl-2,3,3a,8b-tetrahydro-1H-cyclopenta[b]benzofuran-1,8b-diol]",Activity,[1]; 2.8 mg/kg intravenously,Active
same,Deaths (%),[1]; 2.8 mg/kg intravenously,0%
same,response vs control in vivo at 2.8 mg/kg,[1]; [3],25%
"COc1ccc([C@@]23Oc4cc(OC)cc(OC)c4[C@]2(O)[C@@H]2OC(N)=N[C@@H]2[C@H]3c2ccccc2)cc1 (racemic) [Compound 47, rac-(3aR,4R,4aR,9bS,9cR)-2-amino-7,9-dimethoxy-4a-(4-methoxyphenyl)-4-phenyl-4,4a,9b,9c-tetrahydro-3aH-benzofuro[3′,2′:3,4]cyclopenta[1,2-d]oxazol-9b-ol]",EC50,[2]; [4],1.1 nM
